Test results published in ChEMBL document CHEMBL1177732, “Triterpene saponins from Clematis chinensis and their potential anti-inflammatory activity” (J Nat Prod, 2010).
pIC50: −log10 of the molar value.

How the values were obtained:
[1] = target: T1, Prostaglandin G/H synthase 2 (Homo sapiens, UniProt P35354); assay: Inhibition of COX2 by microplate reader
T1 sequence (P35354 whole entry): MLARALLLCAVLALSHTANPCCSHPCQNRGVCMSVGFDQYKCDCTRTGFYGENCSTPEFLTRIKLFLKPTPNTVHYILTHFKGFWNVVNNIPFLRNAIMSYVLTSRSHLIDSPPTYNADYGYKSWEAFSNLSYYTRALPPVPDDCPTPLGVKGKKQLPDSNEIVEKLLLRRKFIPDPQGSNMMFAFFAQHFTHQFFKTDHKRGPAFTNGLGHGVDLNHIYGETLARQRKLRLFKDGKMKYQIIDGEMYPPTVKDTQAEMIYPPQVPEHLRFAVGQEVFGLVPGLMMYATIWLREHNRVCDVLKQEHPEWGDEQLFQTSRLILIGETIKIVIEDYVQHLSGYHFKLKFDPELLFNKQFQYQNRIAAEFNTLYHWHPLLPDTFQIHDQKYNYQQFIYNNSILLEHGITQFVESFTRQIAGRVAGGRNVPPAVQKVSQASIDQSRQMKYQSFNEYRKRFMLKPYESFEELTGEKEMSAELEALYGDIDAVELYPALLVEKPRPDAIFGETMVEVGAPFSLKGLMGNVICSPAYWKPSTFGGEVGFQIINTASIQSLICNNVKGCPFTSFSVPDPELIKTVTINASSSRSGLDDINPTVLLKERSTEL

[2] = target: Prostaglandin G/H synthase 1 (Homo sapiens, UniProt P23219); assay: Inhibition of COX1 by microplate reader
Sequence of Prostaglandin G/H synthase 1 (P23219 whole entry): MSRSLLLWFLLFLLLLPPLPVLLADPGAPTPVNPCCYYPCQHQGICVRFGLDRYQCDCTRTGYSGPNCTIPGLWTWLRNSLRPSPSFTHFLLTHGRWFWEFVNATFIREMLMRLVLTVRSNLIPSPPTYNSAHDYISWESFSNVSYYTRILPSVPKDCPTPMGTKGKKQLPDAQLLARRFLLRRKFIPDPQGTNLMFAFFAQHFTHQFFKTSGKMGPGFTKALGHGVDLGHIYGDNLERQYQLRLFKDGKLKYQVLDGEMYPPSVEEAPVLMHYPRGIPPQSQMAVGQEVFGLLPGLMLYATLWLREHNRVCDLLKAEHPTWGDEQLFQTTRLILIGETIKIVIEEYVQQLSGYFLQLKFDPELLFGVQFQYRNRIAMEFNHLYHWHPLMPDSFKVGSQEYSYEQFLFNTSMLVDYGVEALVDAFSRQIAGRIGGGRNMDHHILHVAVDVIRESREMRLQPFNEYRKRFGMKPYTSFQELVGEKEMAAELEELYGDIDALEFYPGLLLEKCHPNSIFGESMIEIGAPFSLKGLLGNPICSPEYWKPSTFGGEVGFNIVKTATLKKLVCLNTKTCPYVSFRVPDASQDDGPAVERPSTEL

Work on COc1ccc(/C=C/C(=O)OC[C@H]2O[C@@H](O[C@H]3[C@H](O)[C@@H](O)[C@H](O[C@@H]4CO[C@@H](O[C@@H]5[C@@H](O)[C@H](C)O[C@@H](O[C@H]6[C@H](O[C@H]7CC[C@]8(C)[C@H]9CC=C%10[C@@H]%11CC(C)(C)CC[C@]%11(C(=O)O[C@@H]%11O[C@H](CO[C@@H]%12O[C@H](CO)[C@@H](O[C@@H]%13O[C@@H](C)[C@H](O)[C@@H](O)[C@H]%13O)[C@H](O)[C@H]%12O)[C@@H](O)[C@H](O)[C@H]%11O)CC[C@@]%10(C)[C@]9(C)CC[C@H]8C7(C)C)OC[C@@H](O)[C@@H]6O)[C@@H]5O)[C@H](O)[C@@H]4O)O[C@@H]3CO)[C@H](O)[C@@H](O)[C@@H]2O)cc1O [CLEMATOCHINENOSIDE F] yielded a pIC50 [1] of 5.14 and a pIC50 [2] of 5.11.
C[C@@H]1O[C@@H](O[C@H]2[C@H](O)[C@@H](O)[C@H](OC[C@H]3O[C@@H](OC(=O)[C@]45CCC(C)(C)C[C@H]4C4=CC[C@@H]6[C@@]7(C)CC[C@H](O[C@@H]8OC[C@H](O)[C@H](O)[C@H]8O)[C@@](C)(CO)[C@@H]7CC[C@@]6(C)[C@]4(C)CC5)[C@H](O)[C@@H](O)[C@@H]3O)O[C@@H]2CO)[C@H](O)[C@H](O)[C@H]1O [CAULOSIDE D] was tested, and the pIC50 [1] was under 4.30 and the pIC50 [2] was under 4.30.
Compound C[C@@H]1O[C@@H](O[C@H]2[C@H](O)[C@@H](O)[C@H](OC[C@H]3O[C@@H](OC(=O)[C@]45CCC(C)(C)C[C@H]4C4=CC[C@@H]6[C@@]7(C)CC[C@H](O[C@@H]8OC[C@H](O)[C@H](O)[C@H]8O[C@@H]8O[C@@H](C)[C@H](O)[C@@H](O[C@@H]9OC[C@@H](O)[C@@H](O)[C@H]9O)[C@H]8O)[C@@](C)(CO)[C@@H]7CC[C@@]6(C)[C@]4(C)CC5)[C@H](O)[C@@H](O)[C@@H]3O)O[C@@H]2CO)[C@H](O)[C@H](O)[C@H]1O [HUZHANGOSIDE D] has a pIC50 [1] of under 4.30 and a pIC50 [2] of under 4.30.
For C[C@@H]1O[C@@H](O[C@H]2[C@H](O[C@H]3CC[C@]4(C)[C@H]5CC=C6[C@@H]7CC(C)(C)CC[C@]7(C(=O)O[C@@H]7O[C@H](CO[C@@H]8O[C@H](CO)[C@@H](O[C@@H]9O[C@@H](C)[C@H](O)[C@@H](O)[C@H]9O)[C@H](O)[C@H]8O)[C@@H](O)[C@H](O)[C@H]7O)CC[C@@]6(C)[C@]5(C)CC[C@H]4C3(C)CO)OC[C@H](O)[C@@H]2O)[C@H](O)[C@H](O)[C@H]1O (some centres not stated) [KIZUTA SAPONIN K12], the pIC50 [1] was under 4.30 and the pIC50 [2] was under 4.30.
C[C@@H]1O[C@@H](O[C@H]2[C@H](O)[C@@H](O)[C@H](OC[C@H]3O[C@@H](OC(=O)[C@]45CCC(C)(C)C[C@H]4C4=CC[C@@H]6[C@@]7(C)CC[C@H](O[C@@H]8OC[C@H](O)[C@H](O)[C@H]8O[C@@H]8O[C@@H](C)[C@H](O)[C@@H](O[C@@H]9OC[C@@H](O[C@@H]%10O[C@H](CO)[C@@H](O)[C@H](O)[C@H]%10O)[C@@H](O)[C@H]9O)[C@H]8O)C(C)(C)[C@@H]7CC[C@@]6(C)[C@]4(C)CC5)[C@H](O)[C@@H](O)[C@@H]3O)O[C@@H]2CO)[C@H](O)[C@H](O)[C@H]1O [CLEMATICHINENOSIDE C] gave a pIC50 [1] of under 4.30 and a pIC50 [2] of under 4.30.
COc1ccc(/C=C/C(=O)O[C@@H]2[C@@H](O)[C@H](O[C@H]3[C@H](O)[C@@H](O)[C@H](O[C@@H]4CO[C@@H](O[C@@H]5[C@@H](O)[C@H](C)O[C@@H](O[C@H]6[C@H](O[C@H]7CC[C@]8(C)[C@H]9CC=C%10[C@@H]%11CC(C)(C)CC[C@]%11(C(=O)O[C@@H]%11O[C@H](CO[C@@H]%12O[C@H](CO)[C@@H](O[C@@H]%13O[C@@H](C)[C@H](O)[C@@H](O)[C@H]%13O)[C@H](O)[C@H]%12O)[C@@H](O)[C@H](O)[C@H]%11O)CC[C@@]%10(C)[C@]9(C)CC[C@H]8C7(C)C)OC[C@H](O)[C@@H]6O)[C@@H]5O)[C@H](O)[C@@H]4O)O[C@@H]3CO)O[C@H](CO)[C@H]2O)cc1O [CLEMATERNOSIDE B] gave a pIC50 [1] of 5.12 and a pIC50 [2] of 5.10.
For C[C@@H]1O[C@@H](O[C@H]2[C@H](O)[C@@H](O)[C@H](OC[C@H]3O[C@@H](OC(=O)[C@]45CCC(C)(C)C[C@H]4C4=CC[C@@H]6[C@@]7(C)CC[C@H](O[C@@H]8OC[C@H](O)[C@H](O)[C@H]8O[C@@H]8O[C@@H](C)[C@H](O)[C@@H](O[C@@H]9OC[C@@H](O)[C@@H](O)[C@H]9O)[C@H]8O)C(C)(C)[C@@H]7CC[C@@]6(C)[C@]4(C)CC5)[C@H](O)[C@@H](O)[C@@H]3O)O[C@@H]2CO)[C@H](O)[C@H](O)[C@H]1O [HUZHANGOSIDE B], the pIC50 [1] was under 4.30 and the pIC50 [2] was under 4.30.
Work on C[C@@H]1O[C@@H](O[C@H]2[C@H](O)[C@@H](O)[C@H](OC[C@H]3O[C@@H](OC(=O)[C@]45CCC(C)(C)C[C@H]4C4=CC[C@@H]6[C@@]7(C)CC[C@H](O[C@@H]8OC[C@H](O)[C@H](O)[C@H]8O[C@@H]8O[C@@H](C)[C@H](O)[C@@H](O[C@@H]9OC[C@@H](O[C@@H]%10O[C@H](CO)[C@@H](O[C@@H]%11O[C@H](CO)[C@@H](O)[C@H](O)[C@H]%11O)[C@H](O)[C@H]%10O)[C@@H](O)[C@H]9O)[C@H]8O)C(C)(C)[C@@H]7CC[C@@]6(C)[C@]4(C)CC5)[C@H](O)[C@@H](O)[C@@H]3O)O[C@@H]2CO)[C@H](O)[C@H](O)[C@H]1O [CLEMATOMANDSHURICA SAPONIN C] yielded a pIC50 [1] of under 4.30 and a pIC50 [2] of under 4.30.
With C[C@@H]1O[C@@H](O[C@H]2[C@H](O)[C@@H](O)[C@H](OC[C@H]3O[C@@H](OC(=O)[C@]45CCC(C)(C)C[C@H]4C4=CC[C@@H]6[C@@]7(C)CC[C@H](O)C(C)(C)[C@@H]7CC[C@@]6(C)[C@]4(C)CC5)[C@H](O)[C@@H](O)[C@@H]3O)O[C@@H]2CO)[C@H](O)[C@H](O)[C@H]1O [CIRENSENOSIDE O] the pIC50 [1] was under 4.30 and the pIC50 [2] was under 4.30.
In the case of COc1ccc(/C=C/C(=O)O[C@H]2[C@H](O[C@H]3[C@H](O)[C@@H](O)[C@H](O[C@@H]4CO[C@@H](O[C@@H]5[C@@H](O)[C@H](C)O[C@@H](O[C@H]6[C@H](O[C@H]7CC[C@@]8(C)[C@@H](CC[C@]9(C)[C@@H]8CC=C8[C@@H]%10CC(C)(C)CC[C@]%10(C(=O)O[C@@H]%10O[C@H](CO[C@@H]%11O[C@H](CO)[C@@H](O[C@@H]%12O[C@@H](C)[C@H](O)[C@@H](O)[C@H]%12O)[C@H](O)[C@H]%11O)[C@@H](O)[C@H](O)[C@H]%10O)CC[C@]89C)[C@]7(C)CO)OC[C@H](O)[C@@H]6O)[C@@H]5O)[C@H](O)[C@@H]4O)O[C@@H]3CO)O[C@H](CO)[C@@H](O)[C@@H]2O[C@@H]2O[C@H](CO[C@@H]3O[C@@H](C)[C@H](O)[C@@H](O)[C@H]3O)[C@@H](O)[C@H](O)[C@H]2O)cc1O [CLEMATERNOSIDE D], the pIC50 [1] was 5.05 and the pIC50 [2] was 5.06.
With C[C@@H]1O[C@@H](O[C@H]2[C@H](O)[C@@H](O)[C@H](OC[C@H]3O[C@@H](OC(=O)[C@]45CCC(C)(C)C[C@H]4C4=CC[C@@H]6[C@@]7(C)CC[C@H](O[C@@H]8OC[C@H](O)[C@H](O)[C@H]8O[C@@H]8O[C@@H](C)[C@H](O)[C@@H](O[C@@H]9OC[C@@H](O[C@@H]%10O[C@H](CO)[C@@H](O[C@@H]%11O[C@H](CO)[C@@H](O)[C@H](O)[C@H]%11O)[C@H](O)[C@H]%10O)[C@@H](O)[C@H]9O)[C@H]8O)[C@@](C)(CO)[C@@H]7CC[C@@]6(C)[C@]4(C)CC5)[C@H](O)[C@@H](O)[C@@H]3O)O[C@@H]2CO)[C@H](O)[C@H](O)[C@H]1O the pIC50 [1] was under 4.30 and the pIC50 [2] was under 4.30.
